Data published in patent US20170368082A1, “FORMULATIONS OF BRINCIDOFOVIR” (priority 2016, published 2017).

Experiment: Mass balance (excretion of total radioactivity) after 2-h IV infusion of [^14C]brincidofovir
Assay type: in vivo, male Sprague Dawley rats
Protocol: All animals were obtained from Hilltop Lab Animals, Inc. (Scottdale, Pa.). Rats weighed between 214 and 265 g at dosing. […] Three dosing formulations (one for high dose IV, one for low dose IV, and one for PO dose) were prepared at QPS on the day of dosing. […] The IV dose formulation for Group 5 and the PO dose formulation for Groups 6 and 7 contained higher concentration of buffer so that the final buffer concentration was approximately 10 mM in all dose formulations. […] Urine samples were collected from each animal into pre-labeled urine collection tubes at pre-dose (overnight) and at intervals of 0-8 h, 8-24 h, and at every subsequent 24 h interval until 168 h post-dose. All urine specimens were collected over dry ice. The total weight of each urine collection was documented, and the samples were stored frozen at approximately −70° C. until LSC analysis. Samples were maintained at approximately −70° C. following analysis, and were saved for further analysis, to be conducted under a separate protocol. Feces samples were collected from each animal into a pre-labeled feces collection tube at pre-dose (overnight) and at 24 h intervals post-dose until 168 h post-dose. Feces specimens were collected over dry ice and the total weight of each feces sample was documented. Feces samples were stored at approximately −70° C. until homogenization and LSC analysis, were maintained at approximately −70° C. following analysis, and were saved for further analysis, to be conducted under a separate protocol. Feces were homogenized and analyzed for total radioactivity content. […] The actual weights of the individual aliquots and the amount of solvent used in homogenization were recorded. Pre-weighed portions of each feces homogenate were placed into a CombustoCone® that contained a CombustoPad®, allowed to dry over-night in a fume hood, and were burned completely in the sample oxidizer. […] Volumes or weights of sample aliquots were documented in the study records.

Compound: CCCCCCCCCCCCCCCCOCCCOP(=O)(O)CO[C@H](CO)Cn1ccc(N)nc1=O [[^14C]brincidofovir]
- Radioactivity recovered in feces (15 mg/kg 2-h IV, 168 h): 42.2 % of administered dose
- Radioactivity recovered in urine (15 mg/kg 2-h IV, 168 h): 51.2 % of administered dose
- Total recovery in urine and feces combined (168 h): 93.5 % of the dose
- Percent Recovery of total radioactivity (Feces 0-24 h, Mean, 15 mg/kg IV): 36.7 % Dose
- Percent Recovery of total radioactivity (Feces 0-24 h, Rat 01, 15 mg/kg IV): 37.3 % Dose
- Percent Recovery of total radioactivity (Feces 0-24 h, Rat 02, 15 mg/kg IV): 37.6 % Dose
- Percent Recovery of total radioactivity (Feces 0-24 h, Rat 03, 15 mg/kg IV): 35.1 % Dose
- Percent Recovery of total radioactivity (Feces 24-48 h, Mean, 15 mg/kg IV): 3.8 % Dose
- Percent Recovery of total radioactivity (Feces 24-48 h, Rat 01, 15 mg/kg IV): 3.4 % Dose
- Percent Recovery of total radioactivity (Feces 24-48 h, Rat 02, 15 mg/kg IV): 4.6 % Dose
- Percent Recovery of total radioactivity (Feces 24-48 h, Rat 03, 15 mg/kg IV): 3.5 % Dose
- Percent Recovery of total radioactivity (Feces 48-72 h, Mean, 15 mg/kg IV): 0.9 % Dose
- Percent Recovery of total radioactivity (Feces 48-72 h, Rat 01, 15 mg/kg IV): 0.9 % Dose
- Percent Recovery of total radioactivity (Feces 48-72 h, Rat 02, 15 mg/kg IV): 1.0 % Dose
- Percent Recovery of total radioactivity (Feces 48-72 h, Rat 03, 15 mg/kg IV): 0.8 % Dose
- Percent Recovery of total radioactivity (Feces 72-96 h, Mean, 15 mg/kg IV): 0.4 % Dose
- Percent Recovery of total radioactivity (Feces 72-96 h, Rat 01, 15 mg/kg IV): 0.4 % Dose
- Percent Recovery of total radioactivity (Feces 72-96 h, Rat 02, 15 mg/kg IV): 0.4 % Dose
- Percent Recovery of total radioactivity (Feces 72-96 h, Rat 03, 15 mg/kg IV): 0.4 % Dose
- Percent Recovery of total radioactivity (Feces 96-120 h, Mean, 15 mg/kg IV): 0.2 % Dose
- Percent Recovery of total radioactivity (Feces 96-120 h, Rat 01, 15 mg/kg IV): 0.2 % Dose
- Percent Recovery of total radioactivity (Feces 96-120 h, Rat 02, 15 mg/kg IV): 0.2 % Dose
- Percent Recovery of total radioactivity (Feces 96-120 h, Rat 03, 15 mg/kg IV): 0.2 % Dose
- Percent Recovery of total radioactivity (Feces 120-144 h, Mean, 15 mg/kg IV): 0.1 % Dose
- Percent Recovery of total radioactivity (Feces 120-144 h, Rat 01, 15 mg/kg IV): 0.1 % Dose
- Percent Recovery of total radioactivity (Feces 120-144 h, Rat 02, 15 mg/kg IV): 0.1 % Dose
- Percent Recovery of total radioactivity (Feces 120-144 h, Rat 03, 15 mg/kg IV): 0.1 % Dose
- Percent Recovery of total radioactivity (Feces 144-168 h, Mean, 15 mg/kg IV): 0.1 % Dose
- Percent Recovery of total radioactivity (Feces 144-168 h, Rat 01, 15 mg/kg IV): 0.1 % Dose
- Percent Recovery of total radioactivity (Feces 144-168 h, Rat 02, 15 mg/kg IV): 0.1 % Dose
- Percent Recovery of total radioactivity (Feces 144-168 h, Rat 03, 15 mg/kg IV): 0.1 % Dose
- Percent Recovery of total radioactivity (Feces Subtotal (0-168 h), Mean, 15 mg/kg IV): 42.2 % Dose
- Percent Recovery of total radioactivity (Feces Subtotal (0-168 h), Rat 01, 15 mg/kg IV): 42.4 % Dose
- Percent Recovery of total radioactivity (Feces Subtotal (0-168 h), Rat 02, 15 mg/kg IV): 44.2 % Dose
- Percent Recovery of total radioactivity (Feces Subtotal (0-168 h), Rat 03, 15 mg/kg IV): 40.2 % Dose
- Percent Recovery of total radioactivity (Total urine + feces (0-168 h), Mean, 15 mg/kg IV): 93.5 % Dose
- Percent Recovery of total radioactivity (Total urine + feces (0-168 h), Rat 01, 15 mg/kg IV): 93.6 % Dose
- Percent Recovery of total radioactivity (Total urine + feces (0-168 h), Rat 02, 15 mg/kg IV): 91.6 % Dose
- Percent Recovery of total radioactivity (Total urine + feces (0-168 h), Rat 03, 15 mg/kg IV): 95.2 % Dose
- Percent Recovery of total radioactivity (Urine 0-8 h, Mean, 15 mg/kg IV): 31.0 % Dose
- Percent Recovery of total radioactivity (Urine 0-8 h, Rat 01, 15 mg/kg IV): 33.0 % Dose
- Percent Recovery of total radioactivity (Urine 0-8 h, Rat 02, 15 mg/kg IV): 29.3 % Dose
- Percent Recovery of total radioactivity (Urine 0-8 h, Rat 03, 15 mg/kg IV): 30.7 % Dose
- Percent Recovery of total radioactivity (Urine 8-24 h, Mean, 15 mg/kg IV): 12.8 % Dose
- Percent Recovery of total radioactivity (Urine 8-24 h, Rat 01, 15 mg/kg IV): 10.7 % Dose
- Percent Recovery of total radioactivity (Urine 8-24 h, Rat 02, 15 mg/kg IV): 11.5 % Dose
- Percent Recovery of total radioactivity (Urine 8-24 h, Rat 03, 15 mg/kg IV): 16.2 % Dose
- Percent Recovery of total radioactivity (Urine 24-48 h, Mean, 15 mg/kg IV): 4.1 % Dose
- Percent Recovery of total radioactivity (Urine 24-48 h, Rat 01, 15 mg/kg IV): 4.3 % Dose
- Percent Recovery of total radioactivity (Urine 24-48 h, Rat 02, 15 mg/kg IV): 3.6 % Dose
- Percent Recovery of total radioactivity (Urine 24-48 h, Rat 03, 15 mg/kg IV): 4.5 % Dose
- Percent Recovery of total radioactivity (Urine 48-72 h, Mean, 15 mg/kg IV): 1.7 % Dose
- Percent Recovery of total radioactivity (Urine 48-72 h, Rat 01, 15 mg/kg IV): 1.6 % Dose
- Percent Recovery of total radioactivity (Urine 48-72 h, Rat 02, 15 mg/kg IV): 1.6 % Dose
- Percent Recovery of total radioactivity (Urine 48-72 h, Rat 03, 15 mg/kg IV): 1.9 % Dose
- Percent Recovery of total radioactivity (Urine 72-96 h, Mean, 15 mg/kg IV): 0.8 % Dose
- Percent Recovery of total radioactivity (Urine 72-96 h, Rat 01, 15 mg/kg IV): 0.8 % Dose
- Percent Recovery of total radioactivity (Urine 72-96 h, Rat 02, 15 mg/kg IV): 0.8 % Dose
- Percent Recovery of total radioactivity (Urine 72-96 h, Rat 03, 15 mg/kg IV): 0.8 % Dose
- Percent Recovery of total radioactivity (Urine 96-120 h, Mean, 15 mg/kg IV): 0.4 % Dose
- Percent Recovery of total radioactivity (Urine 96-120 h, Rat 01, 15 mg/kg IV): 0.4 % Dose
- Percent Recovery of total radioactivity (Urine 96-120 h, Rat 02, 15 mg/kg IV): 0.3 % Dose
- Percent Recovery of total radioactivity (Urine 96-120 h, Rat 03, 15 mg/kg IV): 0.5 % Dose
- Percent Recovery of total radioactivity (Urine 120-144 h, Mean, 15 mg/kg IV): 0.2 % Dose
- Percent Recovery of total radioactivity (Urine 120-144 h, Rat 01, 15 mg/kg IV): 0.2 % Dose
- Percent Recovery of total radioactivity (Urine 120-144 h, Rat 02, 15 mg/kg IV): 0.2 % Dose
- Percent Recovery of total radioactivity (Urine 120-144 h, Rat 03, 15 mg/kg IV): 0.3 % Dose
- Percent Recovery of total radioactivity (Urine 144-168 h, Mean, 15 mg/kg IV): 0.2 % Dose
- Percent Recovery of total radioactivity (Urine 144-168 h, Rat 01, 15 mg/kg IV): 0.2 % Dose
- Percent Recovery of total radioactivity (Urine 144-168 h, Rat 02, 15 mg/kg IV): 0.1 % Dose
- Percent Recovery of total radioactivity (Urine 144-168 h, Rat 03, 15 mg/kg IV): 0.2 % Dose
- Percent Recovery of total radioactivity (Urine Subtotal (0-168 h), Mean, 15 mg/kg IV): 51.2 % Dose
- Percent Recovery of total radioactivity (Urine Subtotal (0-168 h), Rat 01, 15 mg/kg IV): 51.2 % Dose
- Percent Recovery of total radioactivity (Urine Subtotal (0-168 h), Rat 02, 15 mg/kg IV): 47.5 % Dose
- Percent Recovery of total radioactivity (Urine Subtotal (0-168 h), Rat 03, 15 mg/kg IV): 55.1 % Dose
- Fecal excretion in first 24 h (rat, in vivo): 36.7 % of the dose
- Fecal excretion in first 24 h, share of radioactivity excreted in feces (rat, in vivo): 87%
- Share of urinary and fecal excretion in first 24 h (rat, in vivo): ~86%
- Urinary excretion in first 24 h (rat, in vivo): 43.8 % of the dose
- Urinary excretion in first 24 h, share of radioactivity excreted in urine (rat, in vivo): 86%
